According to ChEMBL document CHEMBL1129185, “The design and synthesis of non-peptide ligands with affinity and selectivity for tachykinin receptors” (Bioorg Med Chem Lett, 1996):
pIC50: −log10 of the molar value. Peptide text beside a SMILES is read from it.

Tests used:
[1] = target: T1, Neuromedin-K receptor (Cavia porcellus) (UniProt P30098); assay: Inhibitory activity against binding of [125I][MePhe7]-NKB SP to tachykinin NK-3 receptor in guinea pig cortical membranes at concentration 10 uM; assay type: cell membranes
T1 sequence (whole entry): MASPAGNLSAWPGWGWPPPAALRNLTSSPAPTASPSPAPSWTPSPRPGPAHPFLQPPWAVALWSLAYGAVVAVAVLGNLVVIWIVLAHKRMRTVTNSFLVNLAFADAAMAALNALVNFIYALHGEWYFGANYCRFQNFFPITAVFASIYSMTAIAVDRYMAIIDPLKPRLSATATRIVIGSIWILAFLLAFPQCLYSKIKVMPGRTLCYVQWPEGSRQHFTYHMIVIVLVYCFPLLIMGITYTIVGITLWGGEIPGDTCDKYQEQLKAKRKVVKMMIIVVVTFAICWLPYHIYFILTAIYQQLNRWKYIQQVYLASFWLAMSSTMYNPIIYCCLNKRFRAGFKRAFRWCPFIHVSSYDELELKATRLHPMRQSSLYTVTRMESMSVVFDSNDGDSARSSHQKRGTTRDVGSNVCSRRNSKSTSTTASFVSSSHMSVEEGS

Substance-P receptor [2] = target: T2, Substance-P receptor (Homo sapiens, UniProt P25103); assay: Inhibitory activity against binding of [125I]Bolton-Hunter SP to tachykinin NK-1 receptor in human lymphoma IM9 cells.; assay type: cell-based, IM-9
T2 sequence (P25103 whole entry): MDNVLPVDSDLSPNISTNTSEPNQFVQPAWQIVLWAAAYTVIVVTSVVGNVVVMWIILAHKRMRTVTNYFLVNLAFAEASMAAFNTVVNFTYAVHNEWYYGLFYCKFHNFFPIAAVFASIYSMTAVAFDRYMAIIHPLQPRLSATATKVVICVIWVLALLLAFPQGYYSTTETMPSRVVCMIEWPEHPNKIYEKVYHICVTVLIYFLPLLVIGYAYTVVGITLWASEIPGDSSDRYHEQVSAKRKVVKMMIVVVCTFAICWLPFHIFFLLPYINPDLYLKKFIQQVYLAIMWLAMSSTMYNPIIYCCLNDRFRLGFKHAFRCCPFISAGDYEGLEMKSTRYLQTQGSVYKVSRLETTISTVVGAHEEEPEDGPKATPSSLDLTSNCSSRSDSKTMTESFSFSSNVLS

Neuromedin-K receptor = target: T3, Neuromedin-K receptor (Cavia porcellus, UniProt P30098); assay: Inhibitory activity against binding of [125I][MePhe7]-NKB SP to tachykinin NK-3 receptor in guinea pig cortical membranes.; assay type: cell membranes
T3 sequence (P30098 whole entry): T1 sequence (whole entry)

Substance-P receptor [3] = target: T2, Substance-P receptor; assay: Inhibitory activity against binding of [125I]Bolton-Hunter SP to tachykinin NK-1 receptor in human lymphoma IM9 cells at concentration 10 uM; assay type: cell-based; settings: IM-9
Substance-P receptor [4] = target: T2, Substance-P receptor; assay: Inhibitory activity against binding of [125I]Bolton-Hunter SP to tachykinin NK-1 receptor in human lymphoma IM9 cells; assay type: cell-based, IM-9

| inhibition [1] [%] | pIC50 (Substance-P receptor [2]) | pIC50 (Neuromedin-K receptor) | inhibition (Substance-P receptor [3]) [%] | pIC50 (Substance-P receptor [4]) | Compound |
| --- | --- | --- | --- | --- | --- |
| < 10 | 5.46 |  |  |  | O=C1C(Cc2c[nH]c3ccccc23)OCCN1Cc1ccccc1 (configuration not stated) |
|  |  | 6.14 |  |  | CSCC[C@H](NC(=O)[C@H](CC(C)C)NC(=O)CNC(=O)[C@H](Cc1ccccc1)NC(=O)[C@H](Cc1ccccc1)NC(=O)[C@H](CCC(N)=O)NC(=O)[C@H](CCC(N)=O)NC(=O)[C@@H]1CCCN1C(=O)[C@H](CCCCN)NC(=O)[C@@H]1CCCN1C(=O)[C@@H](N)CCCN=C(N)N)C(N)=O [SUBSTANCE P] |
|  |  | 5.39 | < 10 |  | O=C1C(Cc2ccccc2)OCCN1Cc1ccccc1 (configuration not stated) |
| < 10 |  |  |  | 5.38 | NC(=O)[C@H](Cc1ccccc1)NC(=O)[C@H](Cc1c[nH]c2ccccc12)NC(=O)OCc1ccccc1 (HELM PEPTIDE1{[O=C(OCc1ccccc1)[*:2]].W.F.[am]}$$$$V2.0) |
